Reference: US20250367157A1, “COMPOSITION FOR USE IN THE TREATMENT OF DISEASES ASSOCIATED WITH DYSFUNCTION OF MITOCHONDRIAE” (IUF LEIBNIZ-INSTITUT FÜR UMWELTMEDIZINISCHE FORSCHUNG GMBH, priority 2022, published 2025)

What was measured:
[1] = tested on: primary XPA-deficient human fibroblasts; experiment: RNA isolation and real-time PCR, XPA fibroblasts; assay type: cell-based; conditions: 24 hours after UVB, Choline 100 mM, alone or combined; for RNA levels of PKM1, PKM2, MT-ATP6, MT-ATP8, SOD2, AKR1B1, HSPA2, TFPI2: Acetate 10 mM, FIG. 3; for RNA levels of CRYAB, HSPA2, ISYNA1: DMKG 10 mM, FIG. 9
Method: (§1) 200 ng of purified RNA were used for cDNA synthesis using SuperScript reverse transcriptase (Thermo Fisher). Expression levels of the genes PKM1, PKM2, MT-ATP6, MT-ATP8, MT-ND1, MT-ND3, TFAM, SOD2, AKR1B1, HSPA2 and TFPI2 were analyzed using a CFX Connect Real-Time PCR detection system and SYBR Green Supermix (both from Bio-Rad). Expression levels of the genes mentioned above were normalized in comparison to the housekeeper genes 18S (for experiments with XPA-deficient fibroblasts) or β2-microglobulin (for experiments with CSB-deficient fibroblasts).
200 ng of purified RNA were used for cDNA synthesis using SuperScript reverse transcriptase (Thermo Fisher). Expression levels of selected genes were analyzed using a CFX Connect Real-Time PCR detection system and SYBR Green Supermix (both from Bio-Rad). Expression levels of the selected genes were normalized in comparison to the housekeeper gene 18S.

[2] = tested on: primary CSB-deficient human fibroblasts; experiment: RNA isolation and real-time PCR, CSB fibroblasts; assay type: cell-based; conditions: Choline 100 mM, alone or combined
Method: as §1
200 ng of purified RNA were used for cDNA synthesis using SuperScript reverse transcriptase (Thermo Fisher). Expression levels of selected genes were analyzed using a CFX Connect Real-Time PCR detection system and SYBR Green Supermix (both from Bio-Rad).

[3] = tested on: primary XPA-deficient human fibroblasts; conditions: Choline 100 mM, Acetate 10 mM, alone or combined; FIG. 2 B, FIG. 7 B
Method: Medium was removed and cells received growth medium (1% FCS) containing either Choline (100 mM), Acetate (10 mM), or a combination of Choline (100 mM) and Acetate (10 mM) (Chol/Ac). Control cells received normal growth medium supplied with 1% FCS. 24 hours later, cells received fresh medium containing the respective compounds and were incubated for another 24 hours. The cells were washed with PBS and fixed with 2% paraformaldehyde. For immunofluorescence staining of ATP and the ATP5A subunit of the mitochondrial ATP synthase, cells were permeabilized with PBS containing 0.1% Triton X-100 and incubated with an anti-ATP antibody raised in rabbit (MyBioSource) and an anti-ATP5A antibody raised in mouse (Abcam) overnight at 4° C. Next day, antibodies were removed, and cells were washed three times with PBS containing 0.1% Triton X-100. Cells were incubated with anti-mouse and anti-rabbit secondary antibodies either labeled with a green (Alexa Fluor 488, Thermo Fisher) or with a red fluorescence dye (Alexa Fluor 594, Thermo Fisher) for 2 hours at room temperature. Antibodies were removed and cells were washed three times with PBS containing 0.1% Triton X-100. Slides were mounted using an anti-fade mounting medium (Southern Biotech) and analyzed with a fluorescence microscope (Zeiss).

[4] = tested on: primary normal human dermal fibroblasts (NHF); experiment: ATP immunofluorescence microscopy, NHF; assay type: cell-based; conditions: Choline 100 mM, Acetate 10 mM, alone or combined
Method: Primary NHF and XPA-deficient fibroblasts were grown on chamber glass slides (Sarstedt) in growth medium containing 15% FCS. 48 hours before UVB irradiation, medium was removed, cells were washed with PBS and received growth medium containing 1% FCS. 24 hours later, medium was removed, and cells received growth medium (1% FCS) containing Choline (100 mM) and Acetate (10 mM). Control cells received normal growth medium supplied with 1% FCS. 24 hours later, medium was removed, cells were washed with PBS and were irradiated with UVB in fresh PBS. Unirradiated control (Sham) cells grown in a second chamber were treated essentially equal but were not exposed to UVB. After irradiation, PBS was removed, and cells were treated with Choline/Acetate or control growth medium. 24 hours later, medium was removed, cells were washed with PBS and fixed with 2% paraformaldehyde. For immunofluorescence staining of ATP and the ATP5A subunit of the mitochondrial ATP synthase, cells were permeabilized with PBS containing 0.1% Triton X-100 and incubated with an anti-ATP antibody raised in rabbit (MyBioSource) and an anti-ATP5A antibody raised in mouse (Abcam) overnight at 4° C. […] Cells were incubated with anti-mouse and anti-rabbit secondary antibodies either labeled with a green (Alexa Fluor 488, Thermo Fisher) or with a red fluorescence dye (Alexa Fluor 594, Thermo Fisher) for 2 hours at room temperature. […] Slides were mounted using an anti-fade mounting medium (Southern Biotech) and analyzed with a fluorescence microscope (Zeiss).
As described herein above for FIG. 2 B, further primary normal human dermal fibroblasts (NHF) and XPA-deficient fibroblasts were grown on chamber glass slides (Sarstedt) in growth medium containing 15% FCS. […] Cells were incubated with anti-mouse and anti-rabbit secondary antibodies either labeled with a green (Alexa Fluor 488, Thermo Fisher) or with a red fluorescence dye (Alexa Fluor 594, Thermo Fisher) for 2 hours at room temperature. […] Slides were mounted using an anti-fade mounting medium (Southern Biotech) and analyzed with a fluorescence microscope (Zeiss). […]

[5] = tested on: primary XPA-deficient human fibroblasts; experiment: Protein extraction and Western blot, XPA fibroblasts; assay type: cell-based; conditions: Choline 100 mM alone or with Acetate 10 mM; FIG. 4 A
Method: Histone samples were stored at −80° C.

[6] = tested on: primary CSB-deficient human fibroblasts; conditions: Example 2.1; Sham and UVB; Choline 100 mM, Acetate 10 mM, alone or combined; FIG. 11
Method: As described herein above for FIG. 2 B, primary NHF and CSB-deficient fibroblasts were grown on chamber glass slides (Sarstedt) in growth medium containing 15% FCS. 48 hours before UVB irradiation, medium was removed, cells were washed with PBS and received growth medium containing 1% FCS. 24 hours later, medium was removed, and cells received growth medium (1% FCS) containing either Choline (100 mM), Acetate (10 mM), or a combination of Choline (100 mM) and Acetate (10 mM) (Chol/Ac). Control cells received normal growth medium supplied with 1% FCS. 24 hours later, medium was removed, cells were washed with PBS and were irradiated with UVB (FIG. 11 B) in fresh PBS. Unirradiated control (Sham) cells (FIG. 11 A) grown in a second chamber were treated essentially equal but were not exposed to UVB. After irradiation, PBS was removed and cells were treated again with the respective compounds or control growth medium. 24 hours later, medium was removed, cells were washed with PBS and fixed with 2% paraformaldehyde. […] Cells were incubated with anti-mouse and anti-rabbit secondary antibodies either labeled with a green (Alexa Fluor 488, Thermo Fisher) or with a red fluorescence dye (Alexa Fluor 594, Thermo Fisher) for 2 hours at room temperature. […] Slides were mounted using an anti-fade mounting medium (Southern Biotech) and analyzed with a fluorescence microscope (Zeiss).

[7] = tested on: primary XPA-deficient human fibroblasts; experiment: Apoptosis measurement (annexin V/propidium iodide flow cytometry); assay type: cell-based; conditions: Cisplatin 50 μM, 24 hours, XPA Control vs XPA Cisplatin; FIG. 1 B
Method: Primary human fibroblasts obtained from Xeroderma pigmentosum group A (XPA) patients and Cockayne Syndrome group B (CSB) patients were purchased from Coriell Institute (USA). Normal human fibroblasts (NHF) were isolated from skin samples obtained from healthy age-matched donors undergoing skin surgery. Cells were grown in Dulbecco's Modified Eagle Medium (DMEM) supplemented with 1% glutamine, antibiotics/antimycotics (growth medium) and 15% fetal calf serum (FCS) at 37° C. in a humidified atmosphere containing 5% CO2. For experiments, cells were detached from culture flasks by treatment with 0.05% trypsin solution (5 min/37° C.). After blocking trypsin activity by adding growth medium with 10% FCS, cells were spun down, resuspended in growth medium (15% FCS) and plated in appropriate culture dishes. Cells were allowed to grow until they reached around 80% confluency. […] Next day, cells were treated with the compounds Choline Chloride (here called Choline), or Sodium Acetate (here called Acetate), or both of them (both compounds were purchased from Sigma-Aldrich). […] Cells were analyzed by using a FACSCanto flow cytometry system. The percentage of early apoptotic cells defined as annexin V (+) and propidium iodide (-) was determined.

SMILES	RNA levels of PKM1, PKM2, MT-ATP6, MT-ATP8, SOD2, AKR1B1, HSPA2, TFPI2 [1]	cellular ATP levels (anti-ATP antibody staining) [3]	cellular ATP levels (anti-ATP antibody staining) ([4]; Example 2, FIG. 2 B, FIG. 7 A)	RNA levels of CRYAB, HSPA2, ISYNA1 [1]	also measured
CC(=O)[O-].[Na+] [Acetate, Sodium Acetate]	does not increase RNA levels after UVB	no effect on cellular ATP abundance when given alone	no effect on cellular ATP abundance when given alone		RNA levels of SOD2, HSPA2 ([2]; 48 hours after UVB, Acetate 10 mM, FIG. 12): only little or even no effect on the RNA levels of the depicted genes
C[N+](C)(C)CCO.[Cl-] [Choline, Choline Chloride]	induced gene expression	accumulation of ATP in the cellular nuclei	accumulation of ATP in the cellular nuclei	induced gene expression of CRYAB, HSPA2 and ISYNA1	GLUT1 protein level [5]: equally increased; cellular ATP levels (anti-ATP antibody staining) [6]: accumulation of ATP in the cellular nuclei; cellular ATP levels (anti-ATP antibody staining) ([4]; Example 2.1, Sham and UVB, FIG. 11): accumulation of ATP in the cellular nuclei
N.N.[Cl][Pt][Cl] [Cisplatin]					apoptosis induction by the DNA-damaging agent alone [7]: increased apoptosis (cell death) induction
COC(=O)CCC(=O)C(=O)OC [DMKG, Dimethyl-α-Ketoglutarate]				only little (or even no) effect on most RNA levels	
CCCCCCC(=O)OCC(COC(=O)CCCCCC)OC(=O)CCCCCC [Triheptanoin]					RNA levels of AKR1B1, SOD2 ([2]; 24 hours after UVB, Triheptanoin 100 μM, FIG. 13): only little or even no positive effect on the RNA level of AKR1B1, and SOD2
